Assay results taken from the NIST ThermoML archive (doi:10.1021/je030216r).
± gives the expanded uncertainty stated by the source.

Assays:
[1] = Boiling temperature at pressure P; conditions: 100 kPa; Liquid; Ebulliometric method (Recirculating still)
[2] = refractive index (Na D-line) (dimensionless); conditions: 293.15 K; 101.33 kPa; Liquid; Standard Abbe refractometry
[3] = 293.15 K; 101.33 kPa; Liquid

| Compound | Boiling temperature at pressure P [1] | refractive index [2] | mass density [3] |
| --- | --- | --- | --- |
| OCCO [1,2-ethanediol] | 197.48 ± 0.2 °C | 1.4328 ± 0.0008 | 1113.6 ± 5.1 kg/m3 |
| CCC(C)CO (centres undefined) [2-methyl-1-butanol] | 128.40 ± 0.2 °C | 1.4095 ± 0.0007 | 817.8 ± 5 kg/m3 |
| CC(C)CCO [3-methylbutan-1-ol] | 131.30 ± 0.2 °C | 1.4054 ± 0.0007 | 808.1 ± 5 kg/m3 |
